In one assay the target is KRAS G12C (Homo sapiens (Human), UniProt P01116, C118A/G12C). Briefly: 2 h coupled exchange assay. Format: biochemical. The procedure: The term “2 h coupled exchange assay” or “20 h coupled exchange assay” as used herein refers to the assay described in the Section entitled “BIOLOGICAL EVALUATION.”
The test system of assay [1] is MIA PaCa-2 (human pancreatic carcinoma) cells. In words: Cell Viability Assay (CellTiter-Glo), MIA PaCa-2. It is filed as cell-based. As for the experimental part: (§1) Serially-diluted compound or DMSO was added to the cells, and plates were incubated at 37° C., 5% CO2 for 72 h. Cell viability was measured using a CellTiter-Glo® Luminescent Cell Viability Assay kit (Promega) according to the manufacturer's protocol. The luminescence signal of treated samples was normalized to DMSO control, and data were analyzed using a 4-parameter logistic model to calculate IC50 values.
For orientation: In ATP-based viability assays light output follows the ATP content of the culture.

For assay [2], the system named is A549 (human lung carcinoma) cells. In words: Cell Viability Assay (CellTiter-Glo), A549. Format: cell-based. As for the experimental part:
as §1, with “MIA PaCa-2 (human pancreatic carcinoma; ATCC CRL-1420) or A549 (human lung carcinoma; ATCC CCL-185) cells were cultured in RPMI 1640 medium containing 10% fetal bovine serum and 1× penicillin/streptomycin/L-glutamine. Cells were seeded in 384-well plates at a density of 1.67E+04 cells/mL and incubated at 37° C., 5% CO2, overnight. Serially-diluted” for “Serially-diluted”

Setting [3] is: read-out: Avg 2 h Coupled exchange IC50, 2 h compound pre-incubation, SOS-mediated nucleotide exchange.
Where [4] appears, read: Avg 2 h Coupled exchange IC50, 2 h compound pre-incubation, SOS-mediated nucleotide exchange.
The mark [5] stands for this setting: Avg 2 h Coupled exchange IC50, 2 h compound pre-incubation.
The mark [6] stands for this setting: read-out: Avg 2 h Coupled exchange IC50, 2 h compound pre-incubation.

Where two headings read alike, the source gives them in different places.

The term IC50 denotes the concentration needed to halve the response being measured.

Regarding “7,7-dimethyl-4-(5-methyl-1H-indazol-4-yl)-2-(2-((^2H3)-2-propenoyl)-2,6-diazaspiro[3.4]octan-6-yl)-5,6,7,8-tetrahydro-3-quinolinecarbonitrile [Example 13-1]”, the IC50 on KRAS G12C (setting [3]) was 0.036 µM; in assay [1] (72 h) it was 0.065 µM; in assay [2] (72 h) it was 4.89 µM.

For `C=CC(=O)N1CC2(CCN(c3nc4c(c(-c5c(C)c(C)cc6cnn(C)c56)c3C)[C@@H]3CC[C@H]4C3)C2)C1` (atropisomer, axis not shown; (M)) [Example 2-111, (M)-1-(6-((1S,8R)-5-methyl-6-(1,5,6-trimethyl-1H-indazol-7-yl)-3-azatricyclo[6.2.1.0^2,7]undeca-2,4,6-trien-4-yl)-2,6-diazaspiro[3.4]octan-2-yl)-2-propen-1-one], the IC50 against KRAS G12C (setting [4]) was found to be 0.003 µM; in assay [1] (Homo sapiens, MIA PaCa-2, 72 h), 0.21 µM; in assay [2] (Homo sapiens, A549, 72 h), 10.9 µM.

On to `C=CC(=O)N1CC2(CCN(c3nc4c(c(-c5c(C)c(Cl)cc6cnn(C)c56)c3F)CCN(C3COC3)C4)C2)C1` (atropisomer, axis not shown; (M)) [Example 14-107, (M)-1-(6-(4-(5-chloro-1,6-dimethyl-1H-indazol-7-yl)-3-fluoro-7-(3-oxetanyl)-5,6,7,8-tetrahydro-1,7-naphthyridin-2-yl)-2,6-diazaspiro[3.4]octan-2-yl)-2-propen-1-one], for which the IC50 against KRAS G12C (setting [5]) came out at 0.013 µM; in assay [1] (Homo sapiens, MIA PaCa-2, 72 h) it was 0.03 µM; in assay [2] (Homo sapiens, A549, 72 h), 15.3 µM.

Turning to `C=CC(=O)N1CC2(CCN(c3nc4c(c(-c5ccc(F)cc5Cl)c3C#N)CCC(c3scnc3C)=C4)C2)C1` (atropisomer, axis not shown; (M)) [Example 23-32, (M)-4-(2-chloro-4-fluorophenyl)-7-(4-methyl-1,3-thiazol-5-yl)-2-(2-(2-propenoyl)-2,6-diazaspiro[3.4]octan-6-yl)-5,6-dihydro-3-quinolinecarbonitrile], the IC50 against KRAS G12C (setting [5]) was 0.282 µM; in assay [1] (72 h) it was 1.95 µM; in assay [2] (72 h), 5.5 µM.

`C=CC(=O)N1CC2(CCN(c3nc4c(c(-c5c(C)ccc6cnn(C)c56)c3C)CCN(C3(C)COC3)C4)C2)C1` (atropisomer, axis not shown; (M)) [Example 36-2, (M)-1-(6-(4-(1,6-dimethyl-H-indazol-7-yl)-3-methyl-7-(3-methyl-3-oxetanyl)-5,6,7,8-tetrahydro-1,7-naphthyridin-2-yl)-2,6-diazaspiro[3.4]octan-2-yl)-2-propen-1-one]: the half-maximal inhibitory concentration (IC50) came to 0.087 µM at KRAS G12C (setting [6]), 0.028 µM in assay [1] (72 h) and 25 µM in assay [2] (72 h).

As to `C=CC(=O)N1CC2(CCN(c3nc4c(c(-c5c(C)ccc6[nH]ncc56)c3C#N)CC(C)(C)C4)[C@@H]2C)C1` (atropisomer, axis not shown; (P)) [Example 13-54, (P)-6,6-dimethyl-4-(5-methyl-1H-indazol-4-yl)-2-((5R)-5-methyl-2-(2-propenoyl)-2,6-diazaspiro[3.4]octan-6-yl)-6,7-dihydro-5H-cyclopenta[b]pyridine-3-carbonitrile], the IC50 at KRAS G12C (setting [4]) is 0.017 µM; in assay [1] (Homo sapiens, MIA PaCa-2, 72 h) it was 0.058 µM; in assay [2] (Homo sapiens, A549, 72 h), > 5 µM.

Turning to `C=CC(=O)N1CC2(CCN(c3nc4c(c(-c5ccc(F)cc5Cl)c3C#N)CCC(c3scnc3C)=C4)C2)C1` (atropisomer, axis not shown; (P)) [Example 23-33, (P)-4-(2-chloro-4-fluorophenyl)-7-(4-methyl-1,3-thiazol-5-yl)-2-(2-(2-propenoyl)-2,6-diazaspiro[3.4]octan-6-yl)-5,6-dihydro-3-quinolinecarbonitrile], the IC50 against KRAS G12C (setting [5]) is 0.101 µM; in assay [1] (72 h), 0.606 µM; in assay [2] (72 h), > 5 µM.

Take `C=CC(=O)N1CC2(CCN(c3nc4ccccc4c(-c4c(C)ccc5[nH]ncc45)c3C=C)C2)C1` (atropisomer, axis not shown; (P)) [Example 26-1, (P)-1-(6-(3-ethenyl-4-(5-methyl-1H-indazol-4-yl)-2-quinolinyl)-2,6-diazaspiro[3.4]octan-2-yl)-2-propen-1-one]: the half-inhibitory concentration (IC50) is 0.14 µM at KRAS G12C (setting [6]), 0.919 µM in assay [1] (72 h) and > 5 µM in assay [2] (72 h).

In the case of `C=CC(=O)N1CC2(CCN(c3nc4c(c(-c5cc(O)cc6ccccc56)c3Cl)COC(C)(C)C4)C2)C1` (single isomer, unassigned) [Example 2-78, (P)-1-(6-(3-chloro-4-(3-hydroxy-1-naphthalenyl)-7,7-dimethyl-7,8-dihydro-5H-pyrano[4,3-b]pyridin-2-yl)-2,6-diazaspiro[3,4]octan-2-yl)-2-propen-1-one], the IC50 is 0.014 µM in assay [1] (Homo sapiens, MIA PaCa-2, 72 h) and > 5 µM in assay [2] (Homo sapiens, A549, 72 h).

For `C=CC(=O)N1CC2(CCN(c3nc4c(c(-c5cc(O)cc6ccccc56)c3F)C[C@H]3C[C@@H]4C3(C)C)C2)C1` (single isomer, unassigned) [Example 14-77], the 50% inhibitory concentration (IC50) in assay [2] (Homo sapiens, A549, 72 h) was > 5 µM.

Take `C=CC(=O)N1CC2(CCN(c3nc4c(c(-c5cc(O)cc6ccccc56)c3Cl)COC(C)(C)C4)C2)C1` [Example 2-76, 1-(6-(3-chloro-4-(3-hydroxy-1-naphthalenyl)-7,7-dimethyl-7,8-dihydro-5H-pyrano[4,3-b]pyridin-2-yl)-2,6-diazaspiro[3.4]octan-2-yl)-2-propen-1-one]: the IC50 is 0.026 µM in assay [1] (Homo sapiens, MIA PaCa-2, 72 h) and > 5 µM in assay [2] (Homo sapiens, A549, 72 h).

As to `C=CC(=O)N1CC2(CCN(c3nc4c(c(-c5cc(O)cc6ccccc56)c3F)C[C@H]3C[C@@H]4C3(C)C)C2)C1` [Example 14-1, 1-(6-((1R,9R)-5-fluoro-6-(3-hydroxy-1-naphthalenyl)-10,10-dimethyl-3-azatricyclo[7.1.1.0^2,7]undeca-2,4,6-trien-4-yl)-2,6-diazaspiro[3.4]octan-2-yl)-2-propen-1-one], the IC50 in assay [1] (Homo sapiens, MIA PaCa-2, 72 h) is 0.039 µM; in assay [2] (Homo sapiens, A549, 72 h), > 5 µM.

At KRAS G12C (setting [5]), `C=CC(=O)N1CC2(CCN(c3nc4cc(-c5scnc5C)cnc4c(-c4ccccc4F)c3Cl)C2)C1` [Example 28-1, 1-(6-(3-chloro-4-(2-fluorophenyl)-7-(4-methylthiazol-5-yl)-1,5-naphthyridin-2-yl)-2,6-diazaspiro[3.4]octan-2-yl)prop-2-en-1-one] had an IC50 of 0.655 µM.

For `C=CC(=O)N1CC2(CCN(c3nc4c(c(-c5c(C)ccc6cnn(C)c56)c3C(F)F)COC(C)(C)C4)C2)C1` [Example 29-1, 1-(6-(3-(difluoromethyl)-4-(1,6-dimethyl-1H-indazol-7-yl)-7,7-dimethyl-7,8-dihydro-5H-pyrano[4,3-b]pyridin-2-yl)-2,6-diazaspiro[3.4]octan-2-yl)-2-propen-1-one], the IC50 against KRAS G12C (setting [5]) stood at 0.648 µM.

In turn, `Cc1ccc2[nH]ncc2c1-c1c(C#N)c(N2CCC3(CN(C(=O)/C=C/COC(F)F)C3)C2)nc2c1CCC(C)(C)C2` [Example 30-1, 2-(2-((2E)-4-(difluoromethoxy)-2-butenoyl)-2,6-diazaspiro[3.4]octan-6-yl)-7,7-dimethyl-4-(5-methyl-1H-indazol-4-yl)-5,6,7,8-tetrahydro-3-quinolinecarbonitrile] yielded a half-maximal inhibitory concentration (IC50) against KRAS G12C (setting [5]) of 0.487 µM.

Compound `Cc1ccc2[nH]ncc2c1-c1c(Cl)c(N2CCC3(CN(C(=O)/C=C/CN(C)C)C3)C2)cc2c1OCCC2` [Example 32-1, (2E)-1-(6-(7-chloro-8-(5-methyl-1H-indazol-4-yl)-3,4-dihydro-2H-chromen-6-yl)-2,6-diazaspiro[3.4]octan-2-yl)-4-(dimethylamino)-2-buten-1-one] showed a half-maximal inhibitory concentration (IC50) on KRAS G12C (setting [5]) of 0.599 µM.

As to `C=CC(=O)N1CC2(CCN(c3nc4c(c(-c5[nH]c(=O)c(Br)c6ccccc56)c3C#N)CCC(C)(C)C4)C2)C1` [Example 33-1, 4-(4-bromo-3-oxo-2,3-dihydro-1-isoquinolinyl)-7,7-dimethyl-2-(2-(2-propenoyl)-2,6-diazaspiro[3.4]octan-6-yl)-5,6,7,8-tetrahydro-3-quinolinecarbonitrile], on KRAS G12C (setting [5]), the IC50 was 0.619 µM.

Turning to `C=CC(=O)N1CC2(CCN(c3nc4c(c(-c5[nH]c(=O)cc6ccccc56)c3C#N)CCC(C)(C)C4)C2)C1` [Example 33-2, 7,7-dimethyl-4-(3-oxo-2,3-dihydro-1-isoquinolinyl)-2-(2-(2-propenoyl)-2,6-diazaspiro[3.4]octan-6-yl)-5,6,7,8-tetrahydro-3-quinolinecarbonitrile], it took 0.659 µM to reach half-maximal inhibition against KRAS G12C (setting [5]) (IC50).

For the compound “(M)-1-(6-(4-(5-chloro-1-methyl-1H-indazol-7-yl)-3,7,7-trimethyl-7,8-dihydro-5H-pyrano[4,3-b]pyridin-2-yl)-2,6-diazaspiro[3.4]octan-2-yl)-2-propen-1-one [Example 2-33]”, the IC50 on KRAS G12C (setting [3]) was determined as 17.4 µM.

For “(P)-1-(6-(4-(5-chloro-1-methyl-1H-indazol-7-yl)-3,7,7-trimethyl-7,8-dihydro-5H-pyrano[4,3-b]pyridin-2-yl)-2,6-diazaspiro[3.4]octan-2-yl)-2-propen-1-one [Example 2-34]”, the concentration for half-maximal inhibition (IC50) at KRAS G12C (setting [3]) is 0.427 µM.
